Some targets named below: HLA-DR DRB1*0101 (DR1) (Homo sapiens, UniProt P01903+P01911, A100R/D57E/F55L/F60I/F76Y/I96L/L162R/M171V/P40L/Q125E/R42F/V115G/Y59C); HLA-DR DRB1*0301 (DR3) (Homo sapiens, UniProt P01903+P01911, A100K/A102G/A103R/A169T/F55Y/I96L/K41T/L162R/M171V/P40S/Q125H/Q178H/Q39Y/R42S/S66N/T106N/T262R/W38E/Y61H); HLA-DR DRB1*0401 (DR4) (Homo sapiens, UniProt P01903+P01911, A100K/A169T/F76Y/I96L/K127E/L162R/M171V/N62H/P40V/Q125Y/R42H/S133A/S149N/S66Y/V115G/V209L/W38E); HLA-DR DRB1*0405 (DR4) (Homo sapiens, UniProt P01903+P01911, A100R/A169T/D86S/F76Y/I96L/K127E/L162R/M171V/N62H/P40V/Q125Y/R42H/S133A/S149N/S66Y/V115G/V209L/W38E); HLA-DR DRB1*0901 (DR9) (Homo sapiens, UniProt P01903+P01911, A100R/A103E/D57H/D86V/F55Y/F60I/F76Y/I96F/K127E/L162R/M171V/P40D/Q125H/Q99R/R33Q/R42F/S133A/S66N/T210M/V115G/W38K/Y107V/Y59G/Y89S); HLA-DR DRB1*0701 (DR7) (Homo sapiens, UniProt P01903+P01911, A100R/A102G/A103Q/D57E/D86V/E43K/F76Y/K127E/L162R/M171V/P40G/Q125H/Q99D/R33Q/R42Y/R54Q/S133A/S66F/T210M/V115G/Y107V/Y59L/Y89S).

What all share (assay): biochemical
Holding throughout (type): binding

The next assay addresses HLA-DR DRB1*1302 (DR13) (Homo sapiens, UniProt P01903+P01911, A100E/A169T/K41T/L162R/M171V/P40S/Q125H/Q178H/Q39Y/Q99D/R42S/S66N/T262R/V115G/W38E/Y61H). Particulars: DRBI *1302.
The target in the next assay is HLA-DR DRB1*1501 (DR15) (Homo sapiens, UniProt P01903+P01911). Particulars: DRBI *1501.
The next assay addresses HLA-DR DRB4*0101 (DR53) (Homo sapiens, UniProt P01903+P13762, G164S). Particulars: DRB4 *0101.
The target in another assay is HLA-DR DRB5*0101 (DR51) (Homo sapiens, UniProt P01903+Q30154). Particulars: DRB5 *0101.
For another assay, the target named is HLA-DR DRB1*1101 (DR11) (Homo sapiens, UniProt P01903+P01911, A100R/A169T/A87E/I96F/K41T/L162R/M171V/P40S/Q125H/Q178H/Q39Y/Q99D/R42S/S66Y/T262R/V115G/W38E). Particulars: DRB1 *1101.

Like-named read-outs stand apart in the source and are kept apart here. No end group written: not given here.

HLA-DR DRB1*1302 (DR13), sequence (P01903 26-254 limits assumed, other chains not shown): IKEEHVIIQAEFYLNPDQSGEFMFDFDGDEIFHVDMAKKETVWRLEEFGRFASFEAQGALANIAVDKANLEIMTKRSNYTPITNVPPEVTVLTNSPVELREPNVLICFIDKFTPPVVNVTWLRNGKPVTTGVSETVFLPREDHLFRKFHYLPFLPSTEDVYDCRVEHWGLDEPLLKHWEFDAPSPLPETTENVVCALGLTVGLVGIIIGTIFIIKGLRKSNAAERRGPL
HLA-DR DRB1*0301 (DR3), sequence (P01903 26-254 limits assumed, other chains not shown): as above
HLA-DR DRB1*1101 (DR11), sequence (P01903 26-254 limits assumed, other chains not shown): as above

For VYDFVFADLRIVYRD, the IC50 on HLA-DR DRB1*0101 (DR1) (read-out: DRB1 *0101) turned out to be 98 nM; at HLA-DR DRB1*0301 (DR3) (read-out: DRB1 *0301), 2.2 nM; on HLA-DR DRB1*0401 (DR4) (read-out: DRB1 *0401) it was 475 nM; at HLA-DR DRB1*0405 (DR4) (read-out: DRB1 *0405), 717 nM; on HLA-DR DRB1*0901 (DR9) (read-out: DRB1 *0901) it was 198 nM.

On to DFAFTDLTIVYRDDT, for which the IC50 at HLA-DR DRB1*0301 (DR3) came out at 23 nM; against HLA-DR DRB1*0401 (DR4) (DRB1 *0401), 80 nM; at HLA-DR DRB1*0405 (DR4) (DRB1 *0405), 40 nM; against HLA-DR DRB1*0901 (DR9) (DRB1 *0901), 1440 nM; against HLA-DR DRB1*1302 (DR13) it was 5010 nM; against HLA-DR DRB1*1501 (DR15) it was 3650 nM. Moreover, the results for the IC50 against HLA-DR DRB4*0101 (DR53) and against HLA-DR DRB5*0101 (DR51) were 21600 nM and 675 nM, respectively.

Turning to `CC[C@H](C)[C@H](N)C(=O)N[C@@H](CCCNC(=N)N)C(=O)N[C@H](C(=O)N[C@@H](CC(C)C)C(=O)N[C@@H](CCC(=O)O)C(=O)N[C@@H](CC(=O)O)C(=O)N[C@@H](CC(C)C)C(=O)N[C@@H](CC(C)C)C(=O)N[C@@H](CCSC)C(=O)NCC(=O)N[C@H](C(=O)N[C@@H](CC(C)C)C(=O)NCC(=O)N[C@H](C(=O)N[C@H](C(=O)O)C(C)C)[C@@H](C)CC)[C@@H](C)O)[C@@H](C)O`, the IC50 was 16 nM against HLA-DR DRB1*0101 (DR1) (DRB1 *0101); 5210 nM on HLA-DR DRB1*0301 (DR3); 95 nM against HLA-DR DRB1*0401 (DR4) (DRB1 *0401); 61 nM on HLA-DR DRB1*0405 (DR4) (DRB1 *0405); 895 nM against HLA-DR DRB1*0701 (DR7) (DRB1 *0701); 1720 nM on HLA-DR DRB1*0901 (DR9) (DRB1 *0901). Also, the IC50 amounted to 789 nM at HLA-DR DRB1*1302 (DR13) and 23 nM against HLA-DR DRB4*0101 (DR53).

Turning to TIVYRDDTPHGVCTK, the IC50 on HLA-DR DRB1*0101 (DR1) (DRB1 *0101) was 3800 nM; against HLA-DR DRB1*0405 (DR4) (DRB1 *0405), more than 9750 nM; against HLA-DR DRB1*0701 (DR7) (DRB1 *0701), more than 35600 nM; against HLA-DR DRB1*0901 (DR9) (DRB1 *0901) it was more than 39100 nM; against HLA-DR DRB1*1101 (DR11), more than 18000 nM; on HLA-DR DRB1*1302 (DR13), 6280 nM. Moreover, the values for the IC50 at HLA-DR DRB1*1501 (DR15), on HLA-DR DRB4*0101 (DR53) and against HLA-DR DRB5*0101 (DR51) were 5450 nM, more than 21500 nM and more than 62300 nM, respectively.

With RLFDNAMLRAHRL, the IC50 was 2.3 nM at HLA-DR DRB1*0101 (DR1) (read-out: DRB1 *0101); 27 nM at HLA-DR DRB1*0301 (DR3) (read-out: DRB1 *0301); 6290 nM at HLA-DR DRB1*0401 (DR4) (read-out: DRB1 *0401); 4250 nM on HLA-DR DRB1*0405 (DR4) (read-out: DRB1 *0405); 3300 nM on HLA-DR DRB1*0701 (DR7) (read-out: DRB1 *0701); more than 59500 nM at HLA-DR DRB1*0901 (DR9) (read-out: DRB1 *0901).

Take KDYILDLQPETTDLH: the IC50 at HLA-DR DRB1*0401 (DR4) (DRB1 *0401) is 1020 nM; on HLA-DR DRB1*0405 (DR4) (DRB1 *0405), 2770 nM; against HLA-DR DRB1*0701 (DR7) (DRB1 *0701), more than 72300 nM; on HLA-DR DRB1*0901 (DR9) (DRB1 *0901) it was more than 49900 nM; against HLA-DR DRB1*1101 (DR11), more than 17400 nM; against HLA-DR DRB1*1302 (DR13), 23700 nM. The IC50 on HLA-DR DRB1*1501 (DR15) was more than 37400 nM; on HLA-DR DRB4*0101 (DR53) it was 490 nM; against HLA-DR DRB5*0101 (DR51), more than 55100 nM.

LSFFLKEKGGLDGL: the IC50 at HLA-DR DRB1*0301 (DR3) (read-out: DRB1 *0301) was more than 341000 nM; on HLA-DR DRB1*0405 (DR4) (read-out: DRB1 *0405) it was 983 nM; at HLA-DR DRB1*0701 (DR7) (read-out: DRB1 *0701), 20000 nM; on HLA-DR DRB1*0901 (DR9) (read-out: DRB1 *0901), 3500 nM.

MLDLQPETTDLYCYE: the IC50 is 720 nM at HLA-DR DRB1*0301 (DR3) (read-out: DRB1 *0301); 1910 nM at HLA-DR DRB1*0401 (DR4) (read-out: DRB1 *0401); 4250 nM at HLA-DR DRB1*0405 (DR4) (read-out: DRB1 *0405); more than 72300 nM at HLA-DR DRB1*0701 (DR7) (read-out: DRB1 *0701); more than 32200 nM on HLA-DR DRB1*0901 (DR9) (read-out: DRB1 *0901).

Turning to `CC[C@H](C)[C@H](NC(=O)[C@H](CCC(=O)O)NC(=O)[C@H](CC(C)C)NC(=O)[C@H](C)NC(=O)[C@H](CO)NC(=O)[C@H](CO)NC(=O)[C@H](CC(C)C)NC(=O)[C@H](CCC(=O)O)NC(=O)[C@H](Cc1c[nH]cn1)NC(=O)[C@H](CC(C)C)NC(=O)[C@H](CCCCN)NC(=O)[C@H](CCCNC(=N)N)NC(=O)[C@@H]1CCCN1)C(=O)N1CCC[C@H]1C(=O)N[C@@H](Cc1ccc(O)cc1)C(=O)O`, the IC50 at HLA-DR DRB1*0301 (DR3) was 16100 nM; at HLA-DR DRB1*0401 (DR4) (DRB1 *0401), 5280 nM; on HLA-DR DRB1*0405 (DR4) (DRB1 *0405) it was 80 nM; at HLA-DR DRB1*0901 (DR9) (DRB1 *0901), 213 nM; at HLA-DR DRB1*1302 (DR13) it was 51 nM; on HLA-DR DRB1*1501 (DR15), 1120 nM. Also, the IC50 at HLA-DR DRB5*0101 (DR51) is more than 10700 nM.
